Experimental findings from ChEMBL document CHEMBL4028801, “A multifactorial approach to hepatobiliary transporter assessment enables improved therapeutic compound development” (Toxicol Sci, 2013) are described below.

In data set [1] the target is ATP-binding cassette sub-family C member 2 (Homo sapiens, UniProt Q92887). Put plainly: Inhibition of human MRP2 overexpressed in Sf9 cell membrane vesicles assessed as uptake of [3H]-estradiol-17beta-D-glucuronide in presence of ATP and GSH measured after 20 mins by membrane vesicle transport assay.
A short description of data set [2]: AUC in human at 30 to 60 mg, po QD after 24 hrs. The settings on record: in vivo. The data set is classed as ADME, organism-based.
For data set [3], the target named is ATP-binding cassette sub-family C member 3 (Homo sapiens, UniProt O15438). Nature of the data set: Inhibition of human MRP3 overexpressed in Sf9 insect cell membrane vesicles assessed as uptake of [3H]-estradiol-17beta-D-glucuronide in presence of ATP and GSH measured after 10 mins by membrane vesicle transport assay. The data set is classed as ADME, cell-based.

For data set [4], the target named is T1, ATP-binding cassette sub-family C member 4 (Homo sapiens, UniProt O15439).
T1 sequence (O15439 whole entry): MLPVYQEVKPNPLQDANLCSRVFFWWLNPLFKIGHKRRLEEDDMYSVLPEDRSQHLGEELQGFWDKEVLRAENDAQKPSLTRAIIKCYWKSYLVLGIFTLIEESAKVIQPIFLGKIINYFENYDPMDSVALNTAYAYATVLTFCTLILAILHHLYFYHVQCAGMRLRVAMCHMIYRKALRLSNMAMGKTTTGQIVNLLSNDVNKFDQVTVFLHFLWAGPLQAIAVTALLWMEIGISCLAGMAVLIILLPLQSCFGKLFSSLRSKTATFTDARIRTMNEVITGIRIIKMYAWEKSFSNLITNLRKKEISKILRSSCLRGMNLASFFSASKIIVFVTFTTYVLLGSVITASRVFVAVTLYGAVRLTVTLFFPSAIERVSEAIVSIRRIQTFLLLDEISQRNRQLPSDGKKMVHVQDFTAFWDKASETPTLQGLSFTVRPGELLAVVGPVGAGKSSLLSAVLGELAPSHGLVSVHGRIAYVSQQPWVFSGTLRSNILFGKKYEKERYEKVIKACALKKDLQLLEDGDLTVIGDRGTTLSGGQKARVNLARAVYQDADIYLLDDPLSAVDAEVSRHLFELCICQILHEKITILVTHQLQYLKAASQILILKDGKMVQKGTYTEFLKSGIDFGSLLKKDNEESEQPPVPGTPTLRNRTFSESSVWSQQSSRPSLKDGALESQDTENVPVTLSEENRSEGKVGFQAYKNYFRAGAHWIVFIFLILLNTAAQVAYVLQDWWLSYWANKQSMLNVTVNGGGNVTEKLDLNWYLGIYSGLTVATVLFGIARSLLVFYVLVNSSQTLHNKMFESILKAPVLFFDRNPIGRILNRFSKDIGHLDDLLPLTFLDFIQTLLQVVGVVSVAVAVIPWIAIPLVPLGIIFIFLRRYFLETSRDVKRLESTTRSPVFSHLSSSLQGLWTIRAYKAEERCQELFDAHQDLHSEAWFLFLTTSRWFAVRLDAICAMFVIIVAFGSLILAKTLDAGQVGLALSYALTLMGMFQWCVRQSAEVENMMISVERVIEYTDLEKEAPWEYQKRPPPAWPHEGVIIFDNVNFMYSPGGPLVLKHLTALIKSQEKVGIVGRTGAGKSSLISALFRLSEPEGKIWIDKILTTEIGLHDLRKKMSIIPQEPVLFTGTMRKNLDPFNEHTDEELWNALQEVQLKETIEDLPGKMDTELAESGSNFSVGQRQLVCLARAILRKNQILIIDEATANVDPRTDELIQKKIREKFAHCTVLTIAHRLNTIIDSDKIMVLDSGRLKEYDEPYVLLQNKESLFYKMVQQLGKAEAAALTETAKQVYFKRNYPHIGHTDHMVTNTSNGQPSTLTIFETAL
Put plainly: Inhibition of human MRP4 overexpressed in Sf9 cell membrane vesicles assessed as uptake of [3H]-estradiol-17beta-D-glucuronide in presence of ATP and GSH measured after 20 mins by membrane vesicle transport assay. Type of data set: ADME, cell-based.

Data set [5] is described as follows: AUC in human at 20 to 40 mg, iv QD after 24 hrs. The settings on record: in vivo. Type of data set: ADME, organism-based.
For data set [6], the target named is Bile salt export pump (Homo sapiens, UniProt O95342). Put plainly: Inhibition of human BSEP overexpressed in Sf9 cell membrane vesicles assessed as uptake of [3H]-taurocholate in presence of ATP measured after 15 to 20 mins by membrane vesicle transport assay. Type of data set: ADME, cell-based.
Data set [7] in a line: Ratio of drug concentration at steady state in human at 20 to 40 mg, iv QD after 24 hrs to IC50 for human BSEP overexpressed in Sf9 insect cells. Type of data set: ADME, organism-based. The settings on record: in vivo.
For data set [8], the system named is Homo sapiens. Put plainly: Drug concentration at steady state in human at 20 to 40 mg, iv QD after 24 hrs. The data set is classed as ADME, organism-based. The settings on record: in vivo.
Data set [9] in a line: Drug concentration at steady state in human at 15 mg, po QD for 14 days after 24 hrs. The data set is classed as ADME, organism-based. The settings on record: in vivo, read-out: Css.
The nature of data set [10]: Ratio of drug concentration at steady state in human at 15 mg, po QD for 14 days after 24 hrs to IC50 for human BSEP overexpressed in Sf9 insect cells. Type of data set: ADME, organism-based. The settings on record: in vivo.
Data set [11] can be described thus: AUC in human at 15 mg, po QD for 14 days after 24 hrs. The data set is classed as ADME, organism-based. On the set-up: dose 15 mg, time < 24 hr, route oral. The settings on record: in vivo.
A short description of data set [12]: Ratio of drug concentration at steady state in human at 300 to 900 mg, po QD after 24 hrs to IC50 for human MRP4 overexpressed in Sf9 insect cells. The data set is classed as ADME, organism-based. The settings on record: in vivo.
Data set [13] in a line: Ratio of drug concentration at steady state in human at 300 to 900 mg, po QD after 24 hrs to IC50 for human BSEP overexpressed in Sf9 insect cells. Type of data set: ADME, organism-based. The settings on record: in vivo.
Data set [14] in a line: Ratio of drug concentration at steady state in human at 300 to 900 mg, po QD after 24 hrs to IC50 for human MRP2 overexpressed in Sf9 insect cells. The settings on record: in vivo. Type of data set: ADME, organism-based.
Data set [15] can be described thus: AUC in human at 300 to 900 mg, po QD after 24 hrs. The data set is classed as ADME, organism-based. The settings on record: in vivo.
Data set [16] is described as follows: Drug concentration at steady state in human at 300 to 900 mg, po QD after 24 hrs. The data set is classed as ADME, organism-based. The settings on record: in vivo, read-out: Css.
Data set [17] is described as follows: AUC (0 to 6 hrs) in human at 800 mg administered once per week for 6 weeks through intravesical instillation measured after 6 hrs. Type of data set: ADME. Also on record: dose 800 mg, time < 6 hr. The settings on record: in vivo.
A short description of data set [18]: Ratio of drug concentration at steady state in human at 800 mg administered once per week for 6 weeks through intravesical instillation measured after 6 hrs to IC50 for human MRP3 overexpressed in Sf9 insect cells. Type of data set: ADME. The settings on record: in vivo, other.
Data set [19] is described as follows: Ratio of drug concentration at steady state in human at 800 mg administered once per week for 6 weeks through intravesical instillation measured after 6 hrs to IC50 for human MRP4 overexpressed in Sf9 insect cells. Type of data set: ADME. The settings on record: in vivo, other.
Data set [20] can be described thus: Ratio of drug concentration at steady state in human at 800 mg administered once per week for 6 weeks through intravesical instillation measured after 6 hrs to IC50 for human BSEP overexpressed in Sf9 insect cells. The data set is classed as ADME. The settings on record: in vivo, other.
The nature of data set [21]: Drug concentration at steady state in human at 800 mg administered once per week for 6 weeks through intravesical instillation measured after 6 hrs. Type of data set: ADME. The settings on record: in vivo, read-out: Css.
Data set [22] can be described thus: Ratio of drug concentration at steady state in human at 800 mg administered once per week for 6 weeks through intravesical instillation measured after 6 hrs to IC50 for human MRP2 overexpressed in Sf9 insect cells. The data set is classed as ADME. The settings on record: in vivo, other.

Structures are written as SMILES. pIC50: −log10 of the molar value.

ATP-binding cassette sub-family C member 3, sequence (O15438 whole entry): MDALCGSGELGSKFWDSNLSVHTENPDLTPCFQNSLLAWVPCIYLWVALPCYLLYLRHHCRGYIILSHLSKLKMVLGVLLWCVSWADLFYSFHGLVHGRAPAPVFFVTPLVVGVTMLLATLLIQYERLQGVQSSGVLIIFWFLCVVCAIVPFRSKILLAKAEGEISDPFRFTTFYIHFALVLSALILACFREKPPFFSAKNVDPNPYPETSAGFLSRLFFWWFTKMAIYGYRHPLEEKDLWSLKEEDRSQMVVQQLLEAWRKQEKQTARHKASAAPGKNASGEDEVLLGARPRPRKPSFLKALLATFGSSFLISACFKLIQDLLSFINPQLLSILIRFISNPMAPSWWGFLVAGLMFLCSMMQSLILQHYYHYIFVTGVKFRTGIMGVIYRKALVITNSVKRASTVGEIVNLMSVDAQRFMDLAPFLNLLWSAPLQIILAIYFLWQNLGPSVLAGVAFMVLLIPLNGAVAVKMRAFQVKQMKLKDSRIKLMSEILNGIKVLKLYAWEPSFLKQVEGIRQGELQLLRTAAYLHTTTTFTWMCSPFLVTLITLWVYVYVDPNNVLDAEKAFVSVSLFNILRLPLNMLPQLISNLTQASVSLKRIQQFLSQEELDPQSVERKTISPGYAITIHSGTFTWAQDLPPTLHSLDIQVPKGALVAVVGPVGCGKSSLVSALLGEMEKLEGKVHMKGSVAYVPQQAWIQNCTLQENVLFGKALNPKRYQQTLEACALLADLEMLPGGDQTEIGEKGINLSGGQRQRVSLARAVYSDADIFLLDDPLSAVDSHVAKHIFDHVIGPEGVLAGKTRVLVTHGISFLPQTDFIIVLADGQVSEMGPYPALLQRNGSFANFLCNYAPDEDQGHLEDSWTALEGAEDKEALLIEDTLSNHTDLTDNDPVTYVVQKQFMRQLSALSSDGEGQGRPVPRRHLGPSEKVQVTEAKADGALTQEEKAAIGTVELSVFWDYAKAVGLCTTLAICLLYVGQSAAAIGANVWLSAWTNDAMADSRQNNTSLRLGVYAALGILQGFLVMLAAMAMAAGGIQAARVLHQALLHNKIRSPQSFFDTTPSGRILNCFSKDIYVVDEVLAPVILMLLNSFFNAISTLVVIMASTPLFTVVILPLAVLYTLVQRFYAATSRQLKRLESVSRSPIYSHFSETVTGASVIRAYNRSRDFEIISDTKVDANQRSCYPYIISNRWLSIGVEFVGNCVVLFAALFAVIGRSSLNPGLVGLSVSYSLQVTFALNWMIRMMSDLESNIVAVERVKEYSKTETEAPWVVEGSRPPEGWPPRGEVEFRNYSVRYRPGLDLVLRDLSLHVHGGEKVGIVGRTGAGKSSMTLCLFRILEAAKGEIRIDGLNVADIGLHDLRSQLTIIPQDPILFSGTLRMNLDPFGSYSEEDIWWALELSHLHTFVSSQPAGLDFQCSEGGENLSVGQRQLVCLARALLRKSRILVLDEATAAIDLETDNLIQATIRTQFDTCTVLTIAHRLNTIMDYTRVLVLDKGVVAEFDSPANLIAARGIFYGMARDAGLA
ATP-binding cassette sub-family C member 2, sequence (Q92887 whole entry): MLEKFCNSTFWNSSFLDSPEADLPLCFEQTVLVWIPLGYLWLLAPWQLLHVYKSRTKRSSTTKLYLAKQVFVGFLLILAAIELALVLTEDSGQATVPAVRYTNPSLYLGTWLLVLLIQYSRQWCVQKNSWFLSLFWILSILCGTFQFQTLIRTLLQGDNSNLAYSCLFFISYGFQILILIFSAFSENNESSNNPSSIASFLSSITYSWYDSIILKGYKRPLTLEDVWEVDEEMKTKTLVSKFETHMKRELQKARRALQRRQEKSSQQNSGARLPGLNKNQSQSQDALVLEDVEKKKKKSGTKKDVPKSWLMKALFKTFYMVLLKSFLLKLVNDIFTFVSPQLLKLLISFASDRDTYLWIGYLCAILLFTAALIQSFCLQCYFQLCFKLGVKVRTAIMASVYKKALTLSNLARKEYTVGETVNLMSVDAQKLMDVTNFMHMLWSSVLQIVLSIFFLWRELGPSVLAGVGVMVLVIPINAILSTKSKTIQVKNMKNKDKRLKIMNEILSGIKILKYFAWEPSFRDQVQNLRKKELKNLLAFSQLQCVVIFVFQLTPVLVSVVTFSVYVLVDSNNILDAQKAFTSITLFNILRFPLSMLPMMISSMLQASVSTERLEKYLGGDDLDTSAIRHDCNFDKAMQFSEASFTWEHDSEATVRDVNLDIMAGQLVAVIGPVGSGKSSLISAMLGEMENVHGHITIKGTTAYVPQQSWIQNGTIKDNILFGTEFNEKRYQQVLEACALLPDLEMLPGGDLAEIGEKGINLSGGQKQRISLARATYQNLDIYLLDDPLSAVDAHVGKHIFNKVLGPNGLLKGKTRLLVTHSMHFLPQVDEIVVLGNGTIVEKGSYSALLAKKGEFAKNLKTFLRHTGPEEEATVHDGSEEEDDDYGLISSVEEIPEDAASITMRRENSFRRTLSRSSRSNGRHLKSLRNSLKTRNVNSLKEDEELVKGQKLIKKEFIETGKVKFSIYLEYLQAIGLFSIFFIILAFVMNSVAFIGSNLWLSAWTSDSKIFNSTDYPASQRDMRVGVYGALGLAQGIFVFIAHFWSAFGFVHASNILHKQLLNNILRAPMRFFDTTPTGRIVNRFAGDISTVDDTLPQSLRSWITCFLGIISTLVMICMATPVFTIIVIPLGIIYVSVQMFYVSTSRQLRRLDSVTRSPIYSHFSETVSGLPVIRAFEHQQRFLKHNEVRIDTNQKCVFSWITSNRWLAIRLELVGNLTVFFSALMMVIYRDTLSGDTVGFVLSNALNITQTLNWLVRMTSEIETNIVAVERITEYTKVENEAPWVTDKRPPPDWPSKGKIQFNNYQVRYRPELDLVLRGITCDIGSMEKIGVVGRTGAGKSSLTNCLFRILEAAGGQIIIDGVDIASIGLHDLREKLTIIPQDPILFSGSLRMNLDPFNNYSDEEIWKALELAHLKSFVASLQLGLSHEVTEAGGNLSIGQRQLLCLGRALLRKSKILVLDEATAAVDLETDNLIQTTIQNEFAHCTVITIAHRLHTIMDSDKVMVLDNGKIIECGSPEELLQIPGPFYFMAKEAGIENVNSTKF
Bile salt export pump, sequence (O95342 whole entry): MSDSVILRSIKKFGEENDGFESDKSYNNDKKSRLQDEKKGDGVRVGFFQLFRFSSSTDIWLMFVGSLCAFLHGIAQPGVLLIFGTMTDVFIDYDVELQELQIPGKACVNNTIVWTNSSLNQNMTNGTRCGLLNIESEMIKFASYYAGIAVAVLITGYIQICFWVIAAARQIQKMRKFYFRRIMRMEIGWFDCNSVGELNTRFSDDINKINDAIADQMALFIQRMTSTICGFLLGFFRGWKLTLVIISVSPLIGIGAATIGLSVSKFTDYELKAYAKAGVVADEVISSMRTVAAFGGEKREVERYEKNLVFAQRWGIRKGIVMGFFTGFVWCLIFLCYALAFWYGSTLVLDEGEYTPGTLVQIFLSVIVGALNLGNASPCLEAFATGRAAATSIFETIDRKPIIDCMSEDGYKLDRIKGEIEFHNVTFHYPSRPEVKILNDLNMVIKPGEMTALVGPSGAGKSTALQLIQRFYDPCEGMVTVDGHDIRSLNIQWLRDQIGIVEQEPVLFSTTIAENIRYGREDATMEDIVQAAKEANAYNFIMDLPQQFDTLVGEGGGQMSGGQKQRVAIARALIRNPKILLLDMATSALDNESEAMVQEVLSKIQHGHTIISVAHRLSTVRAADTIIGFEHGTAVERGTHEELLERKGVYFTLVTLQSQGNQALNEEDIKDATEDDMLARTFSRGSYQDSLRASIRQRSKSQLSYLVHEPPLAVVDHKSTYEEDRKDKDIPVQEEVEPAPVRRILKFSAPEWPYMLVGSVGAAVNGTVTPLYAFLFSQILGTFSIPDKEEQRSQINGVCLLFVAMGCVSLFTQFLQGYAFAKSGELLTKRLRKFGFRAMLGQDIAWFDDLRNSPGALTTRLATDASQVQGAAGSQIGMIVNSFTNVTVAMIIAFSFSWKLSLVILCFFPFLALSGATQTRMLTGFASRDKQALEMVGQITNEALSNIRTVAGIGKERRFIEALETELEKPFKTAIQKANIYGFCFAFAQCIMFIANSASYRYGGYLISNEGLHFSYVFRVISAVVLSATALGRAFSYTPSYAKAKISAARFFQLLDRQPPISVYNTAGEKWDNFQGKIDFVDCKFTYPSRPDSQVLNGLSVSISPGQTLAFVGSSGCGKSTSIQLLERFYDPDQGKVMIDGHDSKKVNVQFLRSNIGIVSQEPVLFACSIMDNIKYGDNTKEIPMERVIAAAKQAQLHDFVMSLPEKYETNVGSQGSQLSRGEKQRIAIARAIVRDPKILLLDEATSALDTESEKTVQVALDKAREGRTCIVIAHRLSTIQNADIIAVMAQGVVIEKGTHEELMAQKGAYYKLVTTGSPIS

With `COC(=O)C1=C(C)NC(C)=C(C(=O)OC)C1c1ccccc1[N+](=O)[O-]` [NIFEDIPINE], the negative logarithm of the IC50 (pIC50) in [1] is under 3.88; in [3], under 3.88; in data set [4] it was 4.78. The compound further showed an exposure (AUC) at 24 h in [2] of 3.48 µM·h.
Compound `COc1ccc2[nH]c([S+]([O-])Cc3ncc(C)c(OC)c3C)nc2c1` (stereo not given) [OMEPRAZOLE] showed an AUC at 24 h in data set [5] of 11.2 µM·h. The pIC50 in [1] is under 3.88; in data set [6], 4.00; in data set [3], under 3.88; in data set [4] it was under 3.88. Further, the Ratio in data set [7] is on record as 0.005. Besides, the Css in [8] came out at 468.2 nM.
On to `COc1cc(NC(C)CCCN)c2ncccc2c1` (stereo not given) [PRIMAQUINE], for which the pIC50 in data set [1], in data set [3] and in data set [4] was under 3.88 throughout. The concentration at 24 h in data set [9] was found to be 71 nM. The Ratio in [10] is 0.002. The compound also yielded an AUC at 24 h in data set [11] of 1.71 µM·h.
Take `CO[C@H]1/C=C/O[C@@]2(C)Oc3c(C)c(O)c4c(c3C2=O)C2=NC3(CCN(CC(C)C)CC3)NC2=C(NC(=O)/C(C)=C\C=C\[C@H](C)[C@H](O)[C@@H](C)[C@@H](O)[C@@H](C)[C@H](OC(C)=O)[C@@H]1C)C4=O` [RIFABUTIN]: the results for the Ratio in data set [12], in data set [13] and in [14] were 0.006, 0.004 and 0.002, respectively. For the same compound, the negative-log IC50 (pIC50) was 4.30 in [1], under 3.88 in data set [3] and 4.80 in [4]. In [15], the area under the curve (AUC) at 24 h turned out to be 2.43 µM·h. Further, the concentration at 24 h in [16] worked out at 101 nM.
Turning to `CCCCC(=O)OCC(=O)[C@]1(O)Cc2c(O)c3c(c(O)c2[C@@H](O[C@H]2C[C@H](NC(=O)C(F)(F)F)[C@H](O)[C@H](C)O2)C1)C(=O)c1c(OC)cccc1C3=O` [VALRUBICIN], the pIC50 in data set [1] is 4.19; in data set [6], 4.62; in data set [3] it was 4.12; in data set [4] it was 4.43. For the same compound, the AUC at 6 h in [17] was 0.788 µM·h. Also, the Ratio in data set [18] is given as 0.002; in data set [19], 0.004; in [20], 0.005; in [22], 0.002. Also, in data set [21], the concentration at 6 h was 131 nM.
